Measurements: ChEMBL document CHEMBL4421734, “Means and methods for treatment of early-onset parkinson''s disease” (2016)
Active and inactive are the calls of the source. The calls are words filed in the database; no cut-off is given here.

What was measured:
[1] = biological target: Fatty acid synthase (Mus musculus) (UniProt P19096); assay: Inhibition of FASN in PINK1 (-/-) MEF assessed as rescue of mitochondrial dysfunction by measuring ATP levels by luminometry; format: cell-based
[2] = biological target: 3-oxoacyl-[acyl-carrier-protein] reductase (Drosophila melanogaster) (UniProt B7Z001); assay: Inhibition of FASN in one day old PINK1 mutant containing Drosophila melanogaster assessed as rescue of defective flight at 100 to 300 uM dosed with food incubated for 72 hrs; format: organism-based
[3] = biological target: 3-oxoacyl-[acyl-carrier-protein] reductase (Drosophila melanogaster) (UniProt B7Z001); assay: Inhibition of FASN in one day old PINK1 mutant containing Drosophila melanogaster assessed as rescue of defective flight at 0.1 to 300 uM dosed with food incubated for 72 hrs; format: organism-based

3-oxoacyl-[acyl-carrier-protein] reductase (Drosophila melanogaster), sequence (B7Z001 as listed by the source): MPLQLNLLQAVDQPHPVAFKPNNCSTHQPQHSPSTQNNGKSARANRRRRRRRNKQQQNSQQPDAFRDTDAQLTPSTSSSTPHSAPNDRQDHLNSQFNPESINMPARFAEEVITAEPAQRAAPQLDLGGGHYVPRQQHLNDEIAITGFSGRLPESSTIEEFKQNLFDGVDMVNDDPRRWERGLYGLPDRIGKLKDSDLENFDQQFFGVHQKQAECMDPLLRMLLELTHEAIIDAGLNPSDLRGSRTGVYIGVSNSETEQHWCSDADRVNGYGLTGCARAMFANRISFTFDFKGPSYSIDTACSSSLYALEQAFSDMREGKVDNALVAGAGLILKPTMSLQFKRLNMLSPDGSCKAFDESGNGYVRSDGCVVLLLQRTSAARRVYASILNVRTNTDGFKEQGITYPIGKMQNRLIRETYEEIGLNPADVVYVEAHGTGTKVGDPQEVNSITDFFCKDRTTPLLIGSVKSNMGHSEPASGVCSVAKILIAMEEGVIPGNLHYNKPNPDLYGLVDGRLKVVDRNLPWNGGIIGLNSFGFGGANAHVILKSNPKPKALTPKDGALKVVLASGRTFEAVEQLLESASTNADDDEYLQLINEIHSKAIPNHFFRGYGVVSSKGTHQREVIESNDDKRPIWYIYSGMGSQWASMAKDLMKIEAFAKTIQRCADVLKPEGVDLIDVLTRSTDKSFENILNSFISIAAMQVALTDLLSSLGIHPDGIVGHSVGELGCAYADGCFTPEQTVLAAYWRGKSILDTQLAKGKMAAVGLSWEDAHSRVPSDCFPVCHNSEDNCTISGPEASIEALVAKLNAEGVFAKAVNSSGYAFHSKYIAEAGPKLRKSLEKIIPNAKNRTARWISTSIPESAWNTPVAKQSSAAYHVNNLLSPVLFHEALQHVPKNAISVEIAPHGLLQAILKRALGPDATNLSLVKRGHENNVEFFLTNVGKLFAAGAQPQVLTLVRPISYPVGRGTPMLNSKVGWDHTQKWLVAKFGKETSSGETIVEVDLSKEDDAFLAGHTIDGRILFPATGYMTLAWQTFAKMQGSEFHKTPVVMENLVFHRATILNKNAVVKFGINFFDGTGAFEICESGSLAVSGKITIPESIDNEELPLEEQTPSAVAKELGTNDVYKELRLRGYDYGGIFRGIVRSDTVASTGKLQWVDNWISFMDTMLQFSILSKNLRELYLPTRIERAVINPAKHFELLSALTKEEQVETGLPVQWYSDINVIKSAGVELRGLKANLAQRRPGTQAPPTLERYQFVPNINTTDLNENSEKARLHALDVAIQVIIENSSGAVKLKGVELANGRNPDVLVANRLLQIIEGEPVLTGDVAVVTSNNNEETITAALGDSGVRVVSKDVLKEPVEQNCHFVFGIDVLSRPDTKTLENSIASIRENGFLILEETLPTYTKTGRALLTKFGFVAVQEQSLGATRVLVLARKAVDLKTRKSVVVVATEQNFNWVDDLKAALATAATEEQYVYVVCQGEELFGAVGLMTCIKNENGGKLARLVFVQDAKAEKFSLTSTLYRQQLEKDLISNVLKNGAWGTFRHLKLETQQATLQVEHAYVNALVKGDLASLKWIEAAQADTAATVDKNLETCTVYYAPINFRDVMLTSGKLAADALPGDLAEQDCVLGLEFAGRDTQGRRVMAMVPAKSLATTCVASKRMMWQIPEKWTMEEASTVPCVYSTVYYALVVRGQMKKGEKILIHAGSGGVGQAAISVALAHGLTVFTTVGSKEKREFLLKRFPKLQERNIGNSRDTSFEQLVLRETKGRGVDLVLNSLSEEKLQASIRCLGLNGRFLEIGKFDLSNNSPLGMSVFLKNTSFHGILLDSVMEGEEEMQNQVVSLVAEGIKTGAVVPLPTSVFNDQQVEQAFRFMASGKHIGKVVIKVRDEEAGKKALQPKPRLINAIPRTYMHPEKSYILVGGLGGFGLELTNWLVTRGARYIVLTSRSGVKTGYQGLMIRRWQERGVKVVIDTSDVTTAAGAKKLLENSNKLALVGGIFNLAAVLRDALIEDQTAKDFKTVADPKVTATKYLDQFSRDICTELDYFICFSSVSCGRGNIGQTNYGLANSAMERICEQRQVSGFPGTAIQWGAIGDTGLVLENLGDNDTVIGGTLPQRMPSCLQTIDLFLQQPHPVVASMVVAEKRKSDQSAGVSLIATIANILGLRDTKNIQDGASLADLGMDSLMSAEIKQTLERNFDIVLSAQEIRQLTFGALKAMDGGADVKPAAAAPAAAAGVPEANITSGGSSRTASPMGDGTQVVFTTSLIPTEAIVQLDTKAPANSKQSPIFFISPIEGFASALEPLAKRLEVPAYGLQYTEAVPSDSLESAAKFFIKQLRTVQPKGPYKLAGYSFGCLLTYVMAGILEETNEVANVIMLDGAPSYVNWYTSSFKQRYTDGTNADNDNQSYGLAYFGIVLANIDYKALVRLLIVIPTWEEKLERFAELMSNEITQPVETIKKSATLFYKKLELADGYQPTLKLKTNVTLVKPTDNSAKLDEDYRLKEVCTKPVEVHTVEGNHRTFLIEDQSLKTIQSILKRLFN
Fatty acid synthase (Mus musculus), sequence (P19096 whole entry): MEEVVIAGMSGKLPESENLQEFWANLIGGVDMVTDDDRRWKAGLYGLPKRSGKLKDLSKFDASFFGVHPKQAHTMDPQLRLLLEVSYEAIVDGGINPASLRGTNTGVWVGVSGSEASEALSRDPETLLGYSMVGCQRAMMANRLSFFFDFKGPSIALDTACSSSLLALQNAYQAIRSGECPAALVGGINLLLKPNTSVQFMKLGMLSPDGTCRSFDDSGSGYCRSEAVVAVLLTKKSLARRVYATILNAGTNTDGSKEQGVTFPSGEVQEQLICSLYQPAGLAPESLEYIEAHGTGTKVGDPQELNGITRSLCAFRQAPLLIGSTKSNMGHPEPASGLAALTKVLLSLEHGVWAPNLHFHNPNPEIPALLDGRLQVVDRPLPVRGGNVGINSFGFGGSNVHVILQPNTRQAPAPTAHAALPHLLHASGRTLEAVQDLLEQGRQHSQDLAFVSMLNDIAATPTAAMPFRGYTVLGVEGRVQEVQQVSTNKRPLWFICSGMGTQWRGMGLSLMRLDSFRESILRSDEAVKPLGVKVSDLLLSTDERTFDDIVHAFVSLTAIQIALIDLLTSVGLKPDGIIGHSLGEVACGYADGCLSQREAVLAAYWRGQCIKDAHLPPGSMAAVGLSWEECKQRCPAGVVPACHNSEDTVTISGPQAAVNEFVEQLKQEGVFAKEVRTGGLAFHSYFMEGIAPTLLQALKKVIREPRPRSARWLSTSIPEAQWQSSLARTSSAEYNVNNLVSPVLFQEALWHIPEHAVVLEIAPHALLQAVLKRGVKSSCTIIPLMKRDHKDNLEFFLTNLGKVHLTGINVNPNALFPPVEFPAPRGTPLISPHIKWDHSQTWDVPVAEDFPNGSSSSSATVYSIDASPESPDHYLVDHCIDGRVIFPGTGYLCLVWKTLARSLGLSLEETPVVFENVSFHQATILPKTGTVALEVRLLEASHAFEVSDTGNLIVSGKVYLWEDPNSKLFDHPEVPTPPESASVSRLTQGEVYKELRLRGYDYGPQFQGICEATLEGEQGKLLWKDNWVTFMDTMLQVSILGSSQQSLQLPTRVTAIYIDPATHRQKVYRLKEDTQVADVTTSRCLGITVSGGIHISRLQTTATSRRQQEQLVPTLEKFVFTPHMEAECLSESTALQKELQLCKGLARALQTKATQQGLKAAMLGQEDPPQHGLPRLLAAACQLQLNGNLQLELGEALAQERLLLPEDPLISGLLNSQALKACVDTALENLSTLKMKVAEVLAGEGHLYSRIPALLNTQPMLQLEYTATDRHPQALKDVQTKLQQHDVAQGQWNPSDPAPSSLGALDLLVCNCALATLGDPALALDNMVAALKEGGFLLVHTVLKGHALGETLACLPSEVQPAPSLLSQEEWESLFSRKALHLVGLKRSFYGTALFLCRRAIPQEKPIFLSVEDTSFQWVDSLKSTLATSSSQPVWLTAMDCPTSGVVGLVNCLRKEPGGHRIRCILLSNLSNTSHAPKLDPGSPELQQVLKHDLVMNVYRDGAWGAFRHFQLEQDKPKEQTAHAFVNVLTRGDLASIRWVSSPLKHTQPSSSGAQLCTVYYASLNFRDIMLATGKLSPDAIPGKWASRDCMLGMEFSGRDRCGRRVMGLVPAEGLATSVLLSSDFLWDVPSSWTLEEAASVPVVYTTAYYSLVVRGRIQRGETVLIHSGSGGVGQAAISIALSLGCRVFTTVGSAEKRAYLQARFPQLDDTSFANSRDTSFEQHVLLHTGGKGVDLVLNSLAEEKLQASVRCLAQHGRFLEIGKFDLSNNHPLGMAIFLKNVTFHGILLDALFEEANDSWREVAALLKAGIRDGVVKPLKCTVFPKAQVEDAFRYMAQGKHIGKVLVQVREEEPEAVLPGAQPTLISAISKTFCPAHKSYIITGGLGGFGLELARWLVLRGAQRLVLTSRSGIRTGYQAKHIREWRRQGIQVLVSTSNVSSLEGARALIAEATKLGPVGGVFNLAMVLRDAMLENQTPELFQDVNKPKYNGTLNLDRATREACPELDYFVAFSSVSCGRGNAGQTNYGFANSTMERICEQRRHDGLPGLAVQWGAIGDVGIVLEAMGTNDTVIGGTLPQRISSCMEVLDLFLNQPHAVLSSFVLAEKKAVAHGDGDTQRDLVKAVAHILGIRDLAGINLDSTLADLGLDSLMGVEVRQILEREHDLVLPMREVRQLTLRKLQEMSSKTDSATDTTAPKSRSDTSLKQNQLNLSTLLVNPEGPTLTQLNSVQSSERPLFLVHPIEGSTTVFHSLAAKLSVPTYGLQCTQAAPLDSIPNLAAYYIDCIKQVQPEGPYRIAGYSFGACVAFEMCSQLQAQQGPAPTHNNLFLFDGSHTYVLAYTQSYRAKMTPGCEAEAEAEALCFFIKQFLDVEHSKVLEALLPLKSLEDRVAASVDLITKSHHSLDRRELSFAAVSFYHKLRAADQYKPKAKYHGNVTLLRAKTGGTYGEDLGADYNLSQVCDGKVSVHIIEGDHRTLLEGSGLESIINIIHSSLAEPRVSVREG

SMILES: C/C=C/C/C=C/CCC(=O)[C@H]1O[C@H]1C(N)=O
- inhibition [1]: Active
- inhibition [2]: Dose-dependent effect

SMILES: Oc1cc(Cl)ccc1Oc1ccc(Cl)cc1Cl
- inhibition [3]: Dose-dependent effect
